Measurements published in patent US4255183A, “Substituted phenyl urea and herbicides for use in paddy field” (Hokko Chemical Industry Co., Ltd., priority 1977, dated 1981).
Where two headings read alike, the source gives them in different places.

Experiments:
[1] = tested on: Dopatrium junceum; assay: Test Example 5: Wagner pot test, herbicidal effect on Dopatrium junceum; format: in vivo
Experimental: (§1) In a 1/7500 are Wagner pot, sieved paddy field soil (alluvial soil) was charged. Thereafter, in the center portion of the pot, 2 roots of paddy rice (Asahi species) at the 2- to 3-leaf stage were transplanted and 20 seeds of Bulrush per pot were seeded in the surface of the above soil. The pot was submerged at the depth of about 2 cm. The other Dopatrium junceum and umbrella plant were generated naturally. After seeding, when each of the weeds reached the same leaf age as defined in Table 5 given herein, a predetermined concentration of the emulsion prepared according to Example 4 was applied dropwise on the surface of the pot. The test was carried out by repeating the same test three times per area and the results were determined 20 days after the application of the chemicals with regard to the herbicidal effect and chemical injury on paddy rice on the basis of the evaluation index as shown below.
(§2) As the comparative chemicals Molinate, Benthiocarb and DCMU, those commercially available were used.
(§3) In the above table, the inhibition rate was calculated according to the method as described in Test Example 1.

[2] = tested on: Echinochloa crus-galli var. oryzicola; assay: Test Example 2: concrete pot test on killing effect, Echinochloa crus-galli var. oryzicola; format: in vivo; conditions: Echinochloa crus-galli, 720 h, granule, 30 days after treatment; for inhibition at 1000 g/ha: 100 g/10 are; for inhibition at 3000 g/ha: 300 g/10 are; for inhibition at 9000 g/ha: 900 g/10 are
Procedure, shortened: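 Barnyardgrass seeded in flooded alluvial paddy soil (~3 cm water) in concrete pots, with 2.5-leaf Asahi rice transplanted before weed emergence. Granules applied at weed 1-leaf or 5-leaf stage. Dry weights measured 30 days after treatment; inhibition rate calculated versus untreated area.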

[3] = tested on: Bulrush; assay: Test Example 5: Wagner pot test, herbicidal effect on Bulrush; format: in vivo
Experimental: as §1, §2, §3

[4] = tested on: Echinochloa crus-galli var. oryzicola; assay: Test Example 1: pot test on selectivity, inhibition of Echinochloa crus-galli var. oryzicola; format: in vivo; conditions: for inhibition at 750 g/ha / inhibition at 1500 g/ha / inhibition at 3000 g/ha / inhibition at 6000 g/ha / inhibition at 9000 g/ha: Echinochloa crus-galli, 720 h; for inhibition at 1500 g/ha: 150 g/10 are; for inhibition at 3000 g/ha: 300 g/10 are; for inhibition at 6000 g/ha: 600 g/10 are; for inhibition at 9000 g/ha: 900 g/10 are
Procedure, shortened: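 Paddy soil pots were sown with 50 barnyard grass and 30 rice seeds under about 1 cm flooding, and emulsion at set concentrations was dripped in at the weed's 1-leaf and 5-leaf stages. After 30 days, dry weights of weed and rice gave inhibition versus untreated.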

[5] = tested on: Echinochloa crus-galli var. oryzicola; assay: Test Example 3: field test in transplanted paddy field, Echinochloa crus-galli var. oryzicola; format: in vivo; conditions: Echinochloa crus-galli, 1440 h; 300 g/10 are, granule, applied at 4-leaf stage, examined 60 days after transplantation; read-out: Inhibition (%) of E. crus-galli var. oryzicola
Experimental: (§4) In a Wagner pot of 1/500 are, paddy field soil (alluvial soil) was placed and 50 seeds of Echinochloa crus-galli var. oryzicola and 30 seeds of paddy rice were seeded in the surface layer of said soil and the submerging depth was kept at about 1 cm. When Echinochloa crus-galli var. oryzicola reached at the one leaf stage and 5-leaf stage, the emulsion of a predetermined concentration, prepared according to Example 4 was added dropwise. After 30 days from the treatment with the chemical, dry weights of Echinochloa crus-galli var. oryzicola and paddy rice were measured and the inhibition rate was calculated with reference to untreated area. [formula]
In a 10 m^2 paddy field, young seedlings of paddy rice (Asahi species) at the 2,5-leaf stage were transplanted 30 days after the puddling the submerging at the depth of 3-5 cm. 25 Days after the transplantation, when Echinochloa crus-galli var. oryzicola reached 4-leaf stage, a predetermined dose of the granule prepared according to Example 1 was applied. Test results were examined 60 days after the transplantation of paddy rice in the similar manner as in Test Example 1.
Comparative chemicals used were all those commercially available and in the case of the comparative chemical 2, CNP was applied 3 days after the transplantation of paddy rice and after 25 days a mixture of Benthiocarb and Simetryne was applied.

[6] = tested on: Umbrella plant; assay: Test Example 5: Wagner pot test, herbicidal effect on umbrella plant; format: in vivo; conditions: 20 days after application
Experimental: as §1, §2, §3

[7] = tested on: Echinochloa crus-galli var. oryzicola; assay: Test Example 4: field test in submerged directly seeded paddy field, Echinochloa crus-galli var. oryzicola; format: in vivo; conditions: Echinochloa crus-galli, 504 h; 300 g/10 are, emulsion, 2- to 3-leaf stage, 21 days after application; read-out: Inhibition (%) of E. crus-galli var. oryzicola
Experimental: as §4
In a 10 m^2 paddy field, 30 g of Echinochloa crus-galli var. oryzicola seeds were seeded at the time of puddling and the depth of submerging was kept at 3-5 cm. 3 Days after the puddling, 50 g of paddy rice at the emergence stage (Asahi species) were seeded. When Echinochloa crus-galli var. oryzicola and paddy rice reached a 2- to 3-leaf stage, a predetermined dose of the emulsion prepared according to Example 4 was applied uniformly by means of a manual spraying machine. Test results were examined 21 days after the application of the chemicals in the similar manner as in Test Example 1.
The comparative chemical 1 used was that commercially available and the comparative chemical 2 used was prepared according to Example 4.

[8] = Acute fish toxicity; conditions: in vivo; young carp, Official Standard of Ministry of Agriculture & Forestry; read-out: acute fish toxicity TLm
Experimental: Acute oral toxicity LD50 value of the compound of the invention measured on SD-strain rat is more than 2,000 mg/Kg for any of the trans-form, cis-form and a mixture thereof in equal amount and further acute fish toxicity TLm value (as defined by Official Standard issued from Ministry of Agriculture & Forestry) measured on young carp is more than 20 ppm for any of the above compounds.

[9] = 300 g/10a, leaf age 2, 20 days after application
[10] = 300 g/10a, leaf age 3, 20 days after application
[11] = 600 g/10a, leaf age 2, 20 days after application
[12] = 600 g/10a, leaf age 3, 20 days after application
[13] = read-out: Inhibition (%) by treatment at 1-leaf stage of E. crus-galli var. oryzicola, E. crus-galli var. oryzicola
[14] = read-out: Inhibition (%) by treatment at 5-leaf stage of E. crus-galli var. oryzicola, E. crus-galli var. oryzicola
[15] = 300 g/10a, leaf age 3-5, 20 days after application
[16] = 600 g/10a, leaf age 3-5, 20 days after application
[17] = 300 g/10a, leaf age 2 (first group of columns)
[18] = 300 g/10a, leaf age 2 (second group of columns)
[19] = 600 g/10a, leaf age 2 (first group of columns)
[20] = 600 g/10a, leaf age 2 (second group of columns)
[21] = 1-leaf stage, dry weight 30 days after treatment, read-out: Inhibition (%) by treatment at 1-leaf stage, E. crus-galli var. oryzicola
[22] = 5-leaf stage, dry weight 30 days after treatment, read-out: Inhibition (%) by treatment at 5-leaf stage, E. crus-galli var. oryzicola

SMILES: CC=CCOc1ccc(NC(=O)N(C)C)cc1 [Mixture of trans- and cis-forms 1:1]
- Weed kill degree, Dopatrium junceum [1, 9]: 5 (100)
- Weed kill degree, Dopatrium junceum [1, 10]: 5 (100)
- Weed kill degree, Dopatrium junceum [1, 11]: 5 (100)
- Weed kill degree, Dopatrium junceum [1, 12]: 5 (100)
- inhibition at 1000 g/ha [2, 13]: 100%
- inhibition at 1000 g/ha [2, 14]: 100%
- inhibition at 3000 g/ha [2, 13]: 100%
- inhibition at 3000 g/ha [2, 14]: 100%
- inhibition at 9000 g/ha [2, 13]: 100%
- inhibition at 9000 g/ha [2, 14]: 100%
- Weed kill degree, Bulrush [3, 10]: 5 (100)
- Weed kill degree, Bulrush [3, 15]: 5 (100)
- Weed kill degree, Bulrush [3, 12]: 5 (100)
- Weed kill degree, Bulrush [3, 16]: 5 (100)
- Inhibition (%) by treatment at 1-leaf stage, E. crus-galli var. oryzicola ([4]; 75 g/10 are, 1-leaf stage, dry weight 30 days after treatment): 96%
- Inhibition (%) by treatment at 5-leaf stage, E. crus-galli var. oryzicola ([4]; 75 g/10 are, 5-leaf stage, dry weight 30 days after treatment): 83%
- inhibition at 3000 g/ha [5]: 100%
- Weed kill degree, Umbrella plant [6, 17]: 5 (100)
- Weed kill degree, Umbrella plant [6, 18]: 5 (100)
- Weed kill degree, Umbrella plant [6, 19]: 5 (100)
- Weed kill degree, Umbrella plant [6, 20]: 5 (100)
- inhibition at 3000 g/ha [7]: 100%
- LC50 [8]: > 20 µg/mL

SMILES: C/C=C/COc1ccc(NC(=O)N(C)C)cc1 [trans-form, 3-(4-trans-crotyloxyphenyl)-1,1-dimethyl urea]
- Weed kill degree, Dopatrium junceum [1, 9]: 5 (100)
- Weed kill degree, Dopatrium junceum [1, 10]: 5 (100)
- Weed kill degree, Dopatrium junceum [1, 11]: 5 (100)
- Weed kill degree, Dopatrium junceum [1, 12]: 5 (100)
- inhibition at 1000 g/ha [2, 13]: 100%
- inhibition at 1000 g/ha [2, 14]: 100%
- inhibition at 3000 g/ha [2, 13]: 100%
- inhibition at 3000 g/ha [2, 14]: 100%
- inhibition at 9000 g/ha [2, 13]: 100%
- inhibition at 9000 g/ha [2, 14]: 100%
- Weed kill degree, Bulrush [3, 10]: 5 (100)
- Weed kill degree, Bulrush [3, 15]: 5 (100)
- Weed kill degree, Bulrush [3, 12]: 5 (100)
- Weed kill degree, Bulrush [3, 16]: 5 (100)
- inhibition at 750 g/ha ([4]; 75 g/10 are, 1-leaf stage, dry weight 30 days after treatment, read-out: Inhibition (%) by treatment at 1-leaf stage, E. crus-galli var. oryzicola): 96%
- inhibition at 750 g/ha ([4]; 75 g/10 are, 5-leaf stage, dry weight 30 days after treatment, read-out: Inhibition (%) by treatment at 5-leaf stage, E. crus-galli var. oryzicola): 86%
- inhibition at 1500 g/ha [4, 21]: 100%
- inhibition at 1500 g/ha [4, 22]: 100%
- inhibition at 3000 g/ha [4, 21]: 100%
- inhibition at 3000 g/ha [4, 22]: 100%
- inhibition at 6000 g/ha [4, 21]: 100%
- inhibition at 6000 g/ha [4, 22]: 100%
- inhibition at 9000 g/ha [4, 21]: 100%
- inhibition at 9000 g/ha [4, 22]: 100%
- activity for killing Echinochloa spp. ([4]; trans-form, cis-form and mixtures compared): equivalent
- inhibition at 3000 g/ha [5]: 100%
- Weed kill degree, Umbrella plant [6, 17]: 5 (100)
- Weed kill degree, Umbrella plant [6, 18]: 5 (100)
- Weed kill degree, Umbrella plant [6, 19]: 5 (100)
- Weed kill degree, Umbrella plant [6, 20]: 5 (100)
- inhibition at 3000 g/ha [7]: 100%
- LC50 [8]: > 20 µg/mL
